In the supplement of paper PMC10307832:

Experiments:
Experiment in all cases: relative viability (nuclei count vs DMSO), 5 days (fraction); higher = more cells survive
Sulindac + Alpelisib = compound: CC1=C(CC(=O)O)c2cc(F)ccc2/C1=C\c1ccc([S+](C)[O-])cc1 [Sulindac] + Cc1nc(NC(=O)N2CCC[C@H]2C(N)=O)sc1-c1ccnc(C(C)(C)C(F)(F)F)c1 [Alpelisib] (partner 2 µM)
Summary of the method: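 After 5 days of treatment, lung cancer cells in 1536-well plates were fixed and stained in a single step (final 0.05% Triton X-100, 1% formaldehyde, 1 ug/ml Hoechst) and their nuclei counted on 4× images. Treatment had been applied by pin tool the day after seeding as one drug alone or as a fixed anchor-drug dose with five library-drug doses (not always all listed) in √10 steps. Relative viability is the nuclei count of treated wells divided by that of vehicle wells, and values are medians of duplicate plates.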

5-Fluorouracil = compound: O=c1[nH]cc(F)c(=O)[nH]1 [5-Fluorouracil]
Summary of the method: (§1)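 Only plates meeting two conditions passed: control CV below 25% and at least one doubling. Lung cancer cell lines, kept overnight at 37 °C in 1536-well plates, were pinned with five library-drug doses (not always all listed) √10 apart on vehicle-anchored plates and grown 5 days without medium change. A one-step fix, permeabilisation and Hoechst stain preceded 4× imaging and MetaXpress nuclear counting. Viability equals treated-well nuclei divided by vehicle-well nuclei, as the median over plates.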

Sulindac = compound: CC1=C(CC(=O)O)c2cc(F)ccc2/C1=C\c1ccc([S+](C)[O-])cc1 [Sulindac]
Summary of the method: as §1

Staurosporine = compound: CN[C@@H]1C[C@H]2O[C@@](C)([C@@H]1OC)n1c3ccccc3c3c4c(c5c6ccccc6n2c5c31)C(=O)NC4 [Staurosporine]
Summary of the method: as §1

NCI-H358
relative viability (Sulindac + Alpelisib; first compound 0.08 µM): 1.01 | relative viability (Sulindac + Alpelisib; first compound 0.253 µM): 0.878 | relative viability (Sulindac + Alpelisib; first compound 0.8 µM): 0.684 | relative viability (Sulindac + Alpelisib; first compound 2.53 µM): 0.808 | relative viability (Sulindac + Alpelisib; first compound 8 µM): 1.1 | relative viability (5-Fluorouracil; 0.02 µM): 1 | relative viability (5-Fluorouracil; 0.2 µM): 1.05 | relative viability (5-Fluorouracil; 0.6325 µM): 0.882 | relative viability (5-Fluorouracil; 2 µM): 0.584 | relative viability (Sulindac; 0.08 µM): 0.918 | relative viability (Sulindac; 0.253 µM): 1.01 | relative viability (Sulindac; 0.8 µM): 0.74 | relative viability (Sulindac; 2.53 µM): 0.999 | relative viability (Sulindac; 8 µM): 1.16 | relative viability (Staurosporine; 0.005 µM): 1.03 | relative viability (Staurosporine; 0.01581 µM): 0.326 | relative viability (Staurosporine; 0.05 µM): 0.203 | relative viability (Staurosporine; 0.1581 µM): 0.117 | relative viability (Staurosporine; 0.5 µM): 0.104

H3255
relative viability (Sulindac + Alpelisib; first compound 0.08 µM): 0.805 | relative viability (Sulindac + Alpelisib; first compound 0.253 µM): 0.768 | relative viability (Sulindac + Alpelisib; first compound 0.8 µM): 0.537 | relative viability (Sulindac + Alpelisib; first compound 2.53 µM): 0.747 | relative viability (Sulindac + Alpelisib; first compound 8 µM): 0.898 | relative viability (5-Fluorouracil; 0.02 µM): 0.901 | relative viability (5-Fluorouracil; 0.2 µM): 1.09 | relative viability (5-Fluorouracil; 0.6325 µM): 0.89 | relative viability (5-Fluorouracil; 2 µM): 0.712 | relative viability (Sulindac; 0.08 µM): 0.943 | relative viability (Sulindac; 0.253 µM): 0.968 | relative viability (Sulindac; 0.8 µM): 0.884 | relative viability (Sulindac; 2.53 µM): 1 | relative viability (Sulindac; 8 µM): 1.1 | relative viability (Staurosporine; 0.005 µM): 0.596 | relative viability (Staurosporine; 0.01581 µM): 0.432 | relative viability (Staurosporine; 0.05 µM): 0.363 | relative viability (Staurosporine; 0.1581 µM): 0.267 | relative viability (Staurosporine; 0.5 µM): 0.145

NCI-H1623
relative viability (5-Fluorouracil; 0.02 µM): 0.581 | relative viability (5-Fluorouracil; 0.2 µM): 0.355 | relative viability (5-Fluorouracil; 0.6325 µM): 0.283 | relative viability (5-Fluorouracil; 2 µM): 0.267 | relative viability (Sulindac; 0.08 µM): 0.896 | relative viability (Sulindac; 0.253 µM): 0.963 | relative viability (Sulindac; 0.8 µM): 0.936 | relative viability (Sulindac; 2.53 µM): 0.961 | relative viability (Sulindac; 8 µM): 1 | relative viability (Staurosporine; 0.005 µM): 1.14 | relative viability (Staurosporine; 0.01581 µM): 1.12 | relative viability (Staurosporine; 0.05 µM): 1.08 | relative viability (Staurosporine; 0.1581 µM): 0.932 | relative viability (Staurosporine; 0.5 µM): 0.519

NCI-H522
relative viability (5-Fluorouracil; 0.02 µM): 1.03 | relative viability (5-Fluorouracil; 0.2 µM): 1 | relative viability (5-Fluorouracil; 0.6325 µM): 0.83 | relative viability (5-Fluorouracil; 2 µM): 0.855 | relative viability (Sulindac; 0.08 µM): 0.911 | relative viability (Sulindac; 0.253 µM): 1.19 | relative viability (Sulindac; 0.8 µM): 0.834 | relative viability (Sulindac; 2.53 µM): 0.912 | relative viability (Sulindac; 8 µM): 1.14 | relative viability (Staurosporine; 0.005 µM): 1 | relative viability (Staurosporine; 0.01581 µM): 0.686 | relative viability (Staurosporine; 0.05 µM): 0.782 | relative viability (Staurosporine; 0.1581 µM): 0.501 | relative viability (Staurosporine; 0.5 µM): 0.437

NCI-H1650
relative viability (5-Fluorouracil; 0.02 µM): 0.814 | relative viability (5-Fluorouracil; 0.2 µM): 0.878 | relative viability (5-Fluorouracil; 0.6325 µM): 0.564 | relative viability (5-Fluorouracil; 2 µM): 0.343 | relative viability (Sulindac; 0.08 µM): 0.851 | relative viability (Sulindac; 0.253 µM): 1.1 | relative viability (Sulindac; 0.8 µM): 0.732 | relative viability (Sulindac; 2.53 µM): 0.942 | relative viability (Sulindac; 8 µM): 1.01 | relative viability (Staurosporine; 0.005 µM): 0.684 | relative viability (Staurosporine; 0.01581 µM): 0.372 | relative viability (Staurosporine; 0.05 µM): 0.314 | relative viability (Staurosporine; 0.1581 µM): 0.15 | relative viability (Staurosporine; 0.5 µM): 0.0851

NCI-H1648
relative viability (5-Fluorouracil; 0.02 µM): 0.922 | relative viability (5-Fluorouracil; 0.2 µM): 0.871 | relative viability (5-Fluorouracil; 0.6325 µM): 0.56 | relative viability (5-Fluorouracil; 2 µM): 0.354 | relative viability (Sulindac; 0.08 µM): 0.953 | relative viability (Sulindac; 0.253 µM): 0.793 | relative viability (Sulindac; 0.8 µM): 0.561 | relative viability (Sulindac; 2.53 µM): 0.923 | relative viability (Sulindac; 8 µM): 0.942 | relative viability (Staurosporine; 0.005 µM): 0.807 | relative viability (Staurosporine; 0.01581 µM): 0.281 | relative viability (Staurosporine; 0.05 µM): 0.244 | relative viability (Staurosporine; 0.1581 µM): 0.324 | relative viability (Staurosporine; 0.5 µM): 0.274

ChaGo-K-1
relative viability (5-Fluorouracil; 0.02 µM): 1.01 | relative viability (5-Fluorouracil; 0.2 µM): 0.964 | relative viability (5-Fluorouracil; 0.6325 µM): 0.766 | relative viability (5-Fluorouracil; 2 µM): 0.612 | relative viability (Sulindac; 0.08 µM): 1.09 | relative viability (Sulindac; 0.253 µM): 1.02 | relative viability (Sulindac; 0.8 µM): 0.863 | relative viability (Sulindac; 2.53 µM): 1.03 | relative viability (Sulindac; 8 µM): 1.12 | relative viability (Staurosporine; 0.005 µM): 1.03 | relative viability (Staurosporine; 0.05 µM): 0.871 | relative viability (Staurosporine; 0.1581 µM): 0.307 | relative viability (Staurosporine; 0.5 µM): 0.228

SW 900
relative viability (5-Fluorouracil; 0.02 µM): 0.693 | relative viability (5-Fluorouracil; 0.2 µM): 0.883 | relative viability (5-Fluorouracil; 0.6325 µM): 0.859 | relative viability (5-Fluorouracil; 2 µM): 0.476 | relative viability (Sulindac; 0.08 µM): 0.644 | relative viability (Sulindac; 0.253 µM): 0.939 | relative viability (Sulindac; 2.53 µM): 0.601 | relative viability (Sulindac; 8 µM): 0.928 | relative viability (Staurosporine; 0.005 µM): 0.624 | relative viability (Staurosporine; 0.01581 µM): 0.368 | relative viability (Staurosporine; 0.05 µM): 0.297 | relative viability (Staurosporine; 0.1581 µM): 0.19 | relative viability (Staurosporine; 0.5 µM): 0.102

NCI-H2342
relative viability (5-Fluorouracil; 0.02 µM): 0.955 | relative viability (5-Fluorouracil; 0.2 µM): 1.02 | relative viability (5-Fluorouracil; 0.6325 µM): 0.894 | relative viability (5-Fluorouracil; 2 µM): 0.783 | relative viability (Sulindac; 0.08 µM): 0.912 | relative viability (Sulindac; 0.253 µM): 0.946 | relative viability (Sulindac; 0.8 µM): 0.843 | relative viability (Sulindac; 2.53 µM): 0.99 | relative viability (Sulindac; 8 µM): 0.99 | relative viability (Staurosporine; 0.005 µM): 1.09 | relative viability (Staurosporine; 0.01581 µM): 0.652 | relative viability (Staurosporine; 0.05 µM): 0.525 | relative viability (Staurosporine; 0.1581 µM): 0.461 | relative viability (Staurosporine; 0.5 µM): 0.36
